“Also recorded” adds a separate entry of the source. Where a name gives a salt, the structure may show the parent alone. Read-outs that look alike come from different tables or passages of the source.
Legend:
zebrafish embryos [1] = assay: Manually assessed pericardial edema in treated zebrafish; type: in vivo; conditions: for Pericardial edema severity: myl7:eGFP zebrafish
Text: FIGURE 4 Quantitative data analysis with pyHeart4Fish. […] (A) The left graph presents the detected heart rate derived from the fast fourier transformation (FFT). […] (B) Percentual data on the severity of manually assessed pericardial edema in treated Tg(myl7:eGPF)^twu34/+ zebrafish. (C) The relative contractility derived from percentual size changes of each heart chamber (left graph). Approximate ejection fraction determined by chamber volume changes (right graph). […] The number of fish analyzed is shown in brackets after the treatment condition. Dotted gray lines indicate z-scores of ±1.96 and statistical significance with an alpha error of 5%.

[2] = system: Tg(myl7:eGFP)^twu34/+ zebrafish embryos; conditions: in vivo;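 also: embryos exposed 24 h from 24 hpf in 0.2% DMSO egg water, tricaine-anaesthetised, heartbeat videos imaged at 470 nm and hearts analysed chamber by chamber from pixel-intensity beat curves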
Description: (§1) Embryos were dechorionated at 21 hpf using 0.22 mg/ml pronase (Merck Chemicals) for 12 min. Then, embryos were carefully washed three times with egg water and transferred into a 96-deep-well plate. After incubation at 28°C for 3 h, excess water was removed with a glass capillary and exchanged with 100 µL/well of 20 µM compound solution from the Prestwick Chemical Library (Prestwick Chemicals, France) in 0.2% DMSO (v/v) in egg water. […] Subsequently, embryos were exposed to compounds for 24 h at 28°C in the dark to enable testing of light-sensitive compounds. Solutions were removed at 48 hpf before wells containing embryos were washed three times with system water. Then, treated embryos were transferred into 12-well plates containing 1 ml 0.03% tricaine in system water (Sigma-Aldrich, Germany). Testing different concentrations (5–80 µM) of compounds and their respective controls followed the above protocol.
(§2) Oriented embryos in 96-well plates were automatically imaged using an [sequence] Imaging Machine ([sequence] Imaging, Germany) widefield microscope. Z-stacks of 10 slices (dZ = 15 µm) were acquired in brightfield (BF) and 470 nm channels with a 4×0.13 numerical aperture objective. The focal plane was detected in the 470 nm channel using a course and secondary fine software autofocus. BF integration time was fixed at 20 ms exposure time and 55% LED intensity. The exposure time for the 470 nm channel was set to 10 ms with a 10% LED intensity. Heartbeat videos of 6 s at 6 frames/second (f/s) were acquired with a time-lapse at a 0 s interval in the focus plane acquired after secondary autofocus using the previously described integration and exposure settings with a 10×0.25 numerical aperture objective.
(§3) Hearts are analyzed chamber-specifically via the user-assisted region of interest (ROI) selection. Cardiac morphology parameters (HS and shape) are extracted as the median of the first six images/frames. Raw data of heartbeat curves for the atrium and ventricle are derived from the sum of pixel intensities and normalized chamber areas. Frequencies (in s^-1) of atrium and ventricle contraction are obtained by applying sine-curve fitting or fast Fourier transformation (FFT) using the SciPy modules “optimize.curve_fit” and “fft.rfft/fft.rfftfreq”, respectively ([Virtanen et al., 2020]). Curve fitting is performed with a maximum of 30 iterations while increasing the frequencies of the fitted sine function. The best fit is selected using the correlation coefficient between the raw data and the fitted function implemented in the NumPy package. A fitted sine function and fitting score are also determined for a truncated signal (first quarter), and the best-fitted sine function is kept to account for an unstable heartbeat signal. In the case of FFT, the first harmonic of the FFT signal is used as the frequency of the atrium or ventricle contraction. Analysis with pyHeart4Fish provides heartbeat videos in GIF format, heartbeat curves as PNG/PDF files and a data sheet containing meta information and cardiac parameters.

zebrafish embryos [3] = assay: Gross morphology / development of treated zebrafish 2 dpf (brightfield); type: in vivo; conditions: 20 µM; for Gross morphology / developmental and teratogenic effects: 2 dpf
Description: FIGURE 5 Morphology of treated zebrafish 2 dpf. An overview of the gross phenotypes of treated zebrafish 2 days post-fertilization. All compounds were dissolved in DMSO; therefore, DMSO served as the negative control. NaCl served as the salt control. The effects of atorvastatin treatment on zebrafish embryos were previously established; thus, this drug was used as a positive control for cardioactivity. The aquatic toxic compound enilconazole was used as the toxic positive control. […] The black arrow in the image of iopanoic acid-treated zebrafish embryo indicates caudal fin deformity. The scale bar indicates 500 µm in overview brightfield images and 150 µm in fluorescence images. (a) Atrium; (v) ventricle.

[4] = system: Tg(myl7:eGFP)^twu34/+ zebrafish embryos; assay: Chamber-specific quantitative heart phenotyping with pyHeart4Fish; conditions: 20 µM; for Effect on heart function / morphology: contractility, conduction, arrhythmia, HS, EF / Effect on heart rate: vs DMSO controls; for Arrhythmia / Conduction defect: number of fish;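 as to all read-outs here: embryos exposed 24 h from 24 hpf in 0.2% DMSO egg water, tricaine-anaesthetised, heartbeat videos imaged at 470 nm and hearts analysed chamber by chamber from pixel-intensity beat curves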
Description: as §1, §2, §3

[5] = system: Tg(fli1a:nEGFP)^y7 zebrafish embryos; assay: Primary high-content heart rate screen of the Prestwick Chemical Library (HeartBeat software v.2.1); type: in vivo; conditions: 20 µM
Text: Acquired image series were preprocessed and analyzed using the previously published HeartBeat software v.2.1 and provided scripts ([Gierten et al., 2020]). For increased comparability between experiments, each quantitative HR value (beats per minute) was divided by the mean of the DMSO controls from the respective experiment. This procedure minimizes variation and creates specific fold-change values that are z-score normalized in the next step. A 90% CI was used to reduce the probability of false-negative results. Finally, data from compounds with insufficient N and known aquatic toxicity were removed.
Based on a previously established high-throughput screening pipeline, we performed a high-content drug screen in zebrafish for cardiovascular modulators ([Poureetezadi et al., 2014]; [Gierten et al., 2020]; [Westhoff et al., 2020]). […] About 98% of the library’s compounds are approved by the Food and Drug Administration (FDA), European Medicines Agency (EMA) or other regulatory agencies. The drug library was screened at a concentration of 20 µM for 24 h until 48 hpf using the transgenic zebrafish line Tg(fli1a:nEGFP)^y7. Subsequently, BF images and videos were captured at 2 dpf to assess gross morphology. HR was analyzed with the previously published tool HeartBeat (v.2.1) to identify potential hit compounds. A 90% CI threshold for effect sizes of ±1.64 was used to reduce false-negative results. […] The Open Targets platform and the Mayo Clinic Drugs and Supplements Database were systematically searched for compound names and common synonyms ([Drugs and Supplements, 2022]; [Open Targets, 2022]). The Medical Subject Headings (MeSH) terms “compound name” and “heart rate” were applied to NCBI PubMed literature research before the first five pages of publications sorted by relevance were screened for relevant information. Furthermore, compounds were filtered for unknown targets (n = 3), FDA black box warning (n = 6) and aquatic toxicity (n = 4). […] Therefore, compounds with n < 3 were excluded (n = 7).

[6] = parameters: method as in Prestwick Chemical Library; conditions: solvents; library annotation, ref Prestwick Chemical Library; cited from earlier work
zebrafish embryos [7] = assay: Toxicity score (ToxScore) at increasing compound concentrations
Description: as §1
Embryos that were deceased and not intact were assigned a max. ToxScore value of 5.

[8] = number of fish, 20 µM, Tg(myl7:eGFP)
[9] = Tg(fli1a:nEGFP)^y7, zebrafish, in vivo, 24 h
[10] = 24 h until 48 hpf, Tg(fli1a:nEGFP)y7

Row | Compound | Edema: Mild (zebrafish embryos [1]; [8]) | Edema: Moderate (zebrafish embryos [1]; [8]) | Edema: No edema (zebrafish embryos [1]; [8]) | Edema: Severe (zebrafish embryos [1]; [8]) | Gross morphology / developmental and teratogenic effects (zebrafish embryos [3]) | Arrhythmia [4] | Conduction defect [4] | Z-score Heart rate [5, 9] [z-score] | Lit. Solubility [6] | other results
1 | [Cl-].[Na+] [NaCl, sodium chloride] | – | – | – | – | – | – | – | – | – | Edema: Mild (zebrafish embryos [1]; zebrafish, in vivo): 7; Edema: Moderate (zebrafish embryos [1]; zebrafish, in vivo): 0; Edema: No edema (zebrafish embryos [1]; zebrafish, in vivo): 8; Edema: Severe (zebrafish embryos [1]; zebrafish, in vivo): 0; Arrhythmia [2]: 1; Chamber size Atrium Max. Contraction [2]: -0.090 z-score; Chamber size Atrium Max. Dilation [2]: -0.215 z-score; Chamber size Ventricle Max. Contraction [2]: -0.643 z-score; Chamber size Ventricle Max. Dilation [2]: 0.353 z-score; Conduction defect [2]: 0; Effect on heart function / morphology: contractility, conduction, arrhythmia, HS, EF [2]: did not significantly affect heart morphology or functionality; Ejection Fraction Atrium [2]: -0.097 z-score; Ejection Fraction Ventricle [2]: 1.036 z-score; FFT freq Atrium (heart rate) [2]: -0.679 z-score; FFT freq Ventricle (heart rate) [2]: -0.573 z-score; Heart size [2]: 0.745 z-score; Relative contractility Atrium [2]: -0.00158 z-score; Relative contractility Ventricle [2]: 0.272 z-score
2 | OCCN1CCN(CCCN2c3ccccc3C=Cc3ccccc32)CC1 [Opipramol diHCl] | 5 | 0 | 0 | 0 | mild developmental delay | 1 | 0 | – | – | Pericardial edema severity (zebrafish embryos [1]; 20 µM): mild edema; Effect on heart function / morphology: contractility, conduction, arrhythmia, HS, EF [4]: do not induce arrhythmia; Effect on heart rate [4]: did not affect HR; Effect on heart function / morphology: contractility, conduction, arrhythmia, HS, EF ([4]; listed as OPI): significantly reduced relative ventricular contractility
3 | CN1CCCC(n2nc(Cc3ccc(Cl)cc3)c3ccccc3c2=O)CC1 (stereo not shown) [Azelastine hydrochloride] | – | – | – | – | – | – | – | -2.598 | H2O, EtOH, DMSO | –
4 | CN1CCC[C@@H]1CCO[C@](C)(c1ccccc1)c1ccc(Cl)cc1 [Clemastine fumarate] | – | – | – | – | – | – | – | -2.7618 | MeOH | –
5 | N=C(N)c1ccc(OCCCCCOc2ccc(C(=N)N)cc2)cc1 [Pentamidine isethionate] | 4 | 0 | 4 | 0 | did not reveal teratogenic effects | 1 | 0 | – | – | –
6 | CN(C)CCCOc1nn(Cc2ccccc2)c2ccccc12 [Benzydamine HCl] | 2 | 0 | 2 | 0 | – | 1 | 0 | – | – | Treated embryos with pericardial edema (zebrafish embryos [1]; 20 µM): 50%; Effect on heart function / morphology: contractility, conduction, arrhythmia, HS, EF [4]: do not induce arrhythmia; Effect on heart function / morphology: contractility, conduction, arrhythmia, HS, EF ([4]; listed as BZY): no conduction defects or arrhythmias were detected; also recorded: relative ventricle contractility increased significantly
7 | CN(C)CCN(Cc1ccccc1)c1ccccn1 [Tripelennamine HCl, tripelennamine HCl] | 4 | 5 | 2 | 0 | development was not delayed | 0 | 0 | -2.358 | DMSO | ToxScore, highest over tested concentrations (zebrafish embryos [7]; 5–80 µM): ≤ 2.6; Effect on heart rate [4]: decreased HR
8 | CC(C)(C)c1ccc(C(O)CCCN2CCC(C(O)(c3ccccc3)c3ccccc3)CC2)cc1 (stereo not shown) [Terfenadine] | – | – | – | – | – | – | – | -5.761 | EtOH/H2O:50/50 | –
9 | Oc1ccc(OCc2ccccc2)cc1 [Monobenzone] | 3 | 2 | 3 | 2 | caused depigmentation without delaying development | 3 | 0 | – | – | ToxScore (zebrafish embryos [7]; 80 µM): ≤ 2.5; Effect on heart function / morphology: contractility, conduction, arrhythmia, HS, EF [4]: did not cause any other alterations to heart phenotypes
10 | CC(=O)[C@H]1CC[C@H]2[C@@H]3CC=C4C[C@@H](O)CC[C@]4(C)[C@H]3CC[C@]12C [Pregnenolone] | 1 | 3 | 0 | 1 | teratogenic effects | 1 | 1 | – | – | Pericardial edema severity (zebrafish embryos [1]; 20 µM): moderate to severe pericardial and yolk edema; Effect on heart function / morphology: contractility, conduction, arrhythmia, HS, EF ([4]; listed as P5): relative contractility of both heart chambers was affected by impaired contraction; also recorded: HS and morphology were not affected
11 | CN(C)CCC(c1ccc(Br)cc1)c1ccccn1 (stereo not shown) [Brompheniramine maleate] | – | – | – | – | – | – | – | -2.122 | – | –
12 | CC(C)c1c(C(=O)Nc2ccccc2)c(-c2ccccc2)c(-c2ccc(F)cc2)n1CC[C@@H](O)C[C@@H](O)CC(=O)O [Atorvastatin, atorvastatin] | 5 | 1 | 5 | 0 | – | 11 | 0 | – | – | Effect on heart function / morphology: contractility, conduction, arrhythmia, HS, EF [4]: did not cause electrophysiological conduction defects; Effect on heart rate [4]: significantly decreased HR
13 | Cc1ccc(/C(=C\CN2CCCC2)c2ccccn2)cc1.Cl [Triprolidine hydrochloride] | – | – | – | – | – | – | – | – | H2O, MeOH, EtOH | –
14 | C=CCOC(Cn1ccnc1)c1ccc(Cl)cc1Cl (stereo not shown) [Enilconazole, enilconazole] | 2 | 0 | 3 | 0 | inhibited pigmentation | 1 | 0 | – | – | Treated fish with developmental delays (zebrafish embryos [3]; both zebrafish lines): 100%; Concentration-dependent toxic effects (zebrafish embryos [7]; 5–80 µM): dose-dependent; Effect on heart rate [4]: significantly reduced HR
15 | CN1CCCN(C(c2ccccc2)c2ccc(Cl)cc2)CC1.Cl.Cl (stereo not shown) [Homochlorcyclizine dihydrochloride] | – | – | – | – | – | – | – | – | – | Z-score Heart rate [5, 10]: -1.853 z-score
16 | Cc1cc(/C=C/c2ccc3cc(N(C)C)ccc3[n+]2C)c(C)n1-c1ccccc1 [Pyrvinium pamoate] | 1 | 0 | 4 | 0 | no teratogenic effects | 1 | 0 | – | – | Effect on heart function / morphology: contractility, conduction, arrhythmia, HS, EF [4]: did not affect relative contractility, conduction, and HS
17 | CCOC(=O)N1CCC(=C2c3ccc(Cl)cc3CCc3cccnc32)CC1 [Loratadine] | – | – | – | – | – | – | – | – | – | Z-score Heart rate [5, 10]: -1.771 z-score
18 | CN(C)CCOC(c1ccc(Cl)cc1)c1ccccn1.O=C(O)/C=C\C(=O)O (stereo not shown) [Carbinoxamine maleate salt] | – | – | – | – | – | – | – | – | H2O, EtOH, CHCl3 | –
19 | CN1CCN(C(c2ccccc2)c2ccc(Cl)cc2)CC1 (stereo not shown) [Chlorcyclizine hydrochloride] | – | – | – | – | – | – | – | – | H2O, CHCl3 | Z-score Heart rate [5, 10]: -2.061 z-score
20 | CN1CCC(OC(c2ccccc2)c2ccccc2)CC1 [Diphenylpyraline hydrochloride] | – | – | – | – | – | – | – | -3.549 | H2O, EtOH | –

Reference: article PMC10126419, “pyHeart4Fish: Chamber-specific heart phenotype quantification of zebrafish in high-content screens” (Frontiers in Cell and Developmental Biology, 2023)
